Results as given in patent US11312688B2, “Pyrazole compound” (Sumitomo Dainippon Pharma Co., Ltd., priority 2011, dated 2022).
Where two headings read alike, the source gives them in different places.

Columns and labels:
[1] = target: T1, human serotonin 2C receptor (h-5-HT2C) (Homo sapiens (Human), UniProt P28335); experiment: 5-HT2C receptor agonistic action assay (FLIPR Calcium 4, h-5-HT2C/CHO cells; agonistic / inverse agonistic action); assay type: cell-based
Procedure: 3-1. The Cells and Inoculation Thereof
In the experiment, human serotonin 2C receptor (h-5-HT2C) was expressed in CHO cells (h-5-HT2C/CHO). The cells were incubated with UltraCHO Lipuid (trademark) (manufactured by BioWhitakker) containing 1% FBS, 400 μg/mL Geneticin, 100 U/mL penicillin-100 μg/mL streptomycin (all manufactured by Sigma Aldrich) and 250 μg/mL Zeosin (manufactured by InvivoGen) in an incubator containing 5% CO2. On the day before using the cells, they were detached and collected using 250 μg/mL Trypsin solution (manufactured by Nacalai Tesque), then inoculated in a 96 well flat clear bottom black polystyrene TC-treated microplates (manufactured by Corning) at 40000 cells/well/60 μL in an incubator containing 5% CO2 for 16 hours to 24 hours.
3-2. 5-HT2C Receptor Agonistic Action Assay
The 5-HT2C receptor agonistic action was evaluated with FLIPR Calcium 4 Assay kit (manufactured by Molecular Devices). In specific, to the cells inoculated in the plate were added Component A of FLIPR Calcium 4 Assay kit dissolved in 100 mL of HHBP buffer (1×Hanks buffer, 20 mmol/L HEPES, both manufactured by Gibco) at an amount of 40 μL/well, and the cells were incubated in an incubator containing 5% CO2 for 1 hour. Then, the cells were set in FLIPR TETRA (trademark) (manufactured by Molecular Devices), to the cells was added the test material diluted with HHBP buffer, 2.5 mmol/L Probenecid (manufactured by Sigma) (concentration after dilution: 10 μmol/L) at an amount of 20 μL/well, and the fluorescence was measured. Then, in order to evaluate the antagonistic action of the test material, 20 μL/well of 5-HT solution (manufactured by Sigma, final concentration: 0.1 nmol/L) was further added to the cells, and the fluorescence was measured.
The 5-HT2C receptor agonistic action of each test material was calculated as a rate of fluorescence enhancement wherein 100% was defined as a value when the cells were given 10 μmol/L 5-HT. Furthermore, the 5-HT2C receptor inverse agonistic action was calculated as a rate of fluorescence decay wherein −100% was defined as a value when the cells were given 10 μmol/L SB206553 (manufactured by Sigma Aldrich). A lower value of the 5-HT2C receptor agonistic action of the test material means that the material has a higher antagonistic action. In particular, when the value of the 5-HT2C receptor agonistic action of the test material is below 0%, the material has an inverse agonistic action for 5-HT2C receptor.

[2] = target: human serotonin transporter (h-SERT) (Homo sapiens (Human), UniProt P31645); experiment: [3H] citalopram binding assay to evaluate human serotonin reuptake inhibitory action (h-SERT binding assay); conditions: h-SERT binding inhibition constant Ki, Test Ex. 1
Procedure: Citalopram Binding Assay to Evaluate Human Serotonin Reuptake Inhibitory Action
In the experiment, human serotonin transporter (h-SERT) was expressed in CHO cells (h-SERT/CHO). The cells were incubated with F12 containing 10% FCS, 500 μg/mL Geneticin and 100 U/mL penicillin-100 μg/mL streptmycin (all manufactured by Sigma Aldrich) in an incubator containing 5% CO2; detached and collected using a SERT buffer [50 mmol/L Tris-HCl comprising 120 mmol/L NaCl and 5 mmol/L KCl (pH=7.4)]; homogenized with a homogenizer manufactured by Teflon (trademark); and then centrifuged (50,000×g, 30 min, 4° C.). The precipitate was suspended again in the appropriate amount of SERT buffer (to give a membrane preparation), and stored at −80° C. until used. The amount of protein in the membrane preparation was assayed by Dye Reagent Concentrate (manufactured by BIO-RAD) using bovine serum albumin (manufactured by Sigma Aldrich) as a standard.
The [^3H] citalopram binding was measured according to the method disclosed in Owens M. J. et al., J. Pharm. […] The glass fiber filter was washed twice with 250 HL of the SERT buffer, placed in a plastic vial containing 4 mL of liquid scintillator (ACS-II, manufactured by Amersham) or Ecoscint A (manufactured by National Diagnostics), and the remaining radioactivity on the filter paper was assayed with a liquid scintillation counter.

[3] = target: T1, human serotonin 2C receptor (h-5-HT2C); experiment: [3H] mesulergine binding assay to evaluate affinity for human 5-HT2C receptor; conditions: Test Ex. 2, h-5-HT2C/CHO membrane preparation, read-out: 5-HT2C receptor binding inhibition constant Ki
Procedure: Mesulergine Binding Assay to Evaluate Affinity for Human 5-HT2C Receptor
Preparation of the Cells and Membrane Preparations
In the experiment, human serotonin 2C receptor (h-5-HT2C) was expressed in CHO cells (h-5-HT2C/CHO). The cells were incubated with UltraCHO Lipuid (trademark) (manufactured by BioWhitakker) containing 1% FBS, 400 μg/mL Geneticin, 100 U/mL penicillin-100 μg/mL streptomycin (all manufactured by Sigma Aldrich) and 250 μg/mL Zeosin (manufactured by InvivoGen) in an incubator containing 5% CO2; detached and collected using 50 mmol/L Tris-HCl (pH=7.4); homogenized with a homogenizer manufactured by Teflon (trademark); and then centrifuged (48,000×g, 25 min, 4° C.). […]
A solution of 200 μL in total was prepared by mixing 50 μL of [^3H] mesulergine (manufactured by GE Healthcare) diluted with 50 mmol/L Tris-HCl (pH=7.4) (final concentration: about 2 nmol/L), 149 μL of the h-5-HT2C/CHO membrane preparation (protein amount: 20 μg/well), and 1 μL of the test drug dissolved in dimethylsulfoxide. […] The glass fiber filter was washed twice with 250 μL of 50 mmol/L Tris-HCl (pH=7.4), placed in a plastic vial containing 4 mL of liquid scintillator (ACS-II, manufactured by Amersham) or Ecoscint A (manufactured by National Diagnostics), and the remaining radioactivity on the filter paper was assayed with a liquid scintillation counter. […]

[4] = Test Ex. 3, test material 10 μmol/L, 100% = 10 μmol/L 5-HT, −100% = 10 μmol/L SB206553, below 0% = inverse agonistic action

T1 sequence (P28335 whole entry, looked up): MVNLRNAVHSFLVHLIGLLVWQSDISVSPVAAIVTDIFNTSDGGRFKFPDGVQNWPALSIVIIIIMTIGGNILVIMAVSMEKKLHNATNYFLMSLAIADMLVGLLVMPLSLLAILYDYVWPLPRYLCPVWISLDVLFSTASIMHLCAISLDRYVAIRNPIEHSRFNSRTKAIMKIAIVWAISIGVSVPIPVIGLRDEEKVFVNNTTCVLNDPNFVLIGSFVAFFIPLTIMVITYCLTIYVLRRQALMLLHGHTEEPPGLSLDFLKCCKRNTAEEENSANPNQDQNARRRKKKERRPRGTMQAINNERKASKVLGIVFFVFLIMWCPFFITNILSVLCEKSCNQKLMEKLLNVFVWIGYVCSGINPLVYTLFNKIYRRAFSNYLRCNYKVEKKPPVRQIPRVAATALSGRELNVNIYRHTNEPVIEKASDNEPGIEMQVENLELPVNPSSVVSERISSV

Compound | 5-HT2C receptor agonistic action [1] [%] | further results
CNCc1cc(OCc2ccccc2)n(C(CF)C2CCCCC2)n1.Cl (stereo not drawn) [Example 330, 1-[5-(Benzyloxy)-1-(1-cyclohexyl-2-fluoroethyl)-1H-pyrazol-3-yl]-N-methylmethanamine Hydrochloride] | −82 | 
CNCc1cc(OCc2ccccc2)n(CCCc2ccccc2)n1 [Example 3, 1-[5-(Benzyloxy)-1-(3-phenylpropyl)-1H-pyrazol-3-yl]-N-methylmethanamine] | −91 | 
CNCc1cc(OCc2cc(F)ccc2F)n(CCC(C)(C)F)n1.Cl [Example 481, 1-{5-[(2,5-Difluorobenzyl)oxy]-1-(3-fluoro-3-methylbutyl)-1H-pyrazol-3-yl}-N-methylmethanamine Hydrochloride] | −109 | 
CCC(CC)n1nc(CNC)cc1OCc1ccc(F)cc1Cl [Example 253] |  | 5-HT2C receptor agonistic action [1, 4]: −86%
CNCc1cc(OCc2ccccc2)n(C(CO)C2CCCCC2)n1.Cl (stereo not drawn) [Example 328, 2-{5-(Benzyloxy)-3-[(methylamino)methyl]-1H-pyrazol-1-yl}-2-cyclohexyl-ethanol Hydrochloride] | −116 | 
Cl.NCc1cc(OCc2cc(F)ccc2F)n(CC2CCCC2)n1 [Example 347, 1-{1-(Cyclopentylmethyl)-5-[(2,5-difluorobenzyl)oxy]-1H-pyrazol-3-yl}methanamine Hydrochloride] | −114 | 
CNCc1cc(SCc2ccccc2)n(Cc2ccccc2)n1.Cl [Example 355, 1-[1-Benzyl-5-(benzylsulfanyl)-1H-pyrazol-3-yl]-N-methylmethanamine Hydrochloride] | −72 | 
CNCc1cc(OCc2ccccc2)n(C(C)C2CCCC2)n1.Cl (stereo not drawn) [Example 288, 1-[5-(Benzyloxy)-1-(1-cyclopentylethyl)-1H-pyrazol-3-yl]-N-methylmethanamine Hydrochloride] | −80 | 
CNCc1cc(OCc2cc(F)ccc2F)n(CCC(C)(C)C)n1 [Example 266, 1-{5-[(2,5-difluorobenzyl)oxy]-1-(3,3-dimethylbutyl)-1H-pyrazol-3-yl}-N-methylmethanamine] |  | 5-HT2C receptor agonistic action [1, 4]: −86%
CNCc1cc(OCc2ccc(F)cc2F)n(CC2CCCC2)n1 [Example 144, 1-{1-(cyclopentylmethyl)-5-[(2,4-difluorobenzyl)oxy]-1H-pyrazol-3-yl}-N-methylmethanamine] | −127 | 
CNCc1cc(OCc2ccccc2)n(CC2CCCCC2)n1 [Example 5, 1-[5-(Benzyloxy)-1-(cyclohexylmethyl)-1H-pyrazol-3-yl]-N-methylmethanamine] | −91 | 
CNCc1cc(OCc2cc(F)c(F)cc2F)n(CCC2CC2)n1 [Example 426] | −99 | 
CNCc1cc(OCc2cccc(OC)c2)n(CC2CCCCC2)n1 [Compound 42] | −106 | 
CNCc1cc(OCc2cc(Cl)ccc2F)n(CC2CCCCO2)n1 (single isomer, unassigned; (-)) [Example 474, (−)-1-{5-[(5-chloro-2-fluorobenzyl)oxy]-1-(tetrahydro-2H-pyran-2-ylmethyl)-1H-pyrazol-3-yl}-N-methylmethanamine] | −111 | Ki [2]: 0.011 µM; Ki [3]: 0.016 µM
N-Benzyl-1-(cyclohexylmethyl)-3-[(methyl]-1H-pyrazol-5-amine Dihydrochloride [Example 357] | −120 | 
CNCc1cc(OCc2cc(Cl)ccc2F)n(CC(C)C)n1 [Example 256, 1-{5-[(5-chloro-2-fluorobenzyl)oxy]-1-(2-methylpropyl)-1H-pyrazol-3-yl}-N-methylmethanamine] |  | 5-HT2C receptor agonistic action [1, 4]: −97%

Compound | 5-HT2C receptor agonistic action [1] [%] | further results
CNCc1cc(OCc2cc(Cl)ccc2F)n(CC2CCCCO2)n1 (single isomer, unassigned; (+)) [Example 475, (+)-1-{5-[(5-chloro-2-fluorobenzyl)oxy]-1-(tetrahydro-2H-pyran-2-ylmethyl)-1H-pyrazol-3-yl}-N-methylmethanamine] | −95 | Ki [2]: 0.0092 µM; Ki [3]: 0.019 µM
CNCc1cc(OCc2cc(Cl)ccc2F)n(CCC(C)(C)F)n1.Cl [Example 482, 1-{5-[(5-Chloro-2-fluorobenzyl)oxy]-1-(3-fluoro-3-methylbutyl)-1H-pyrazol-3-yl}-N-methylmethanamine Hydrochloride] | −116 | 
CNCc1cc(OCc2cc(Cl)ccc2F)n(CCC2(O)CCCC2)n1.Cl [Example 435, 1-(2-{5-[(5-Chloro-2-fluorobenzyl)oxy]-3-[(methylamino)-methyl]-1H-pyrazol-1-yl}ethyl)cyclopentanol Hydrochloride] | −125 | 
CNCc1cc(OCc2cc(Cl)ccc2F)n(CC(C)(C)C)n1 [Example 259, 1-{5-[(5-chloro-2-fluorobenzyl)oxy]-1-(2,2-dimethylpropyl)-1H-pyrazol-3-yl}-N-methylmethanamine] |  | 5-HT2C receptor agonistic action [1, 4]: −119%
CNCc1cc(OCc2cc(Cl)ccc2F)n(CC2(OC)CCCCC2)n1 [Compound 434] | −87 | 
CNC(C)c1cc(OCc2cc(F)ccc2F)n(CCC2CCCC2)n1 (stereo not drawn) [Example 315, 1-{1-(2-cyclopentylethyl)-5-[(2,5-difluorobenzyl)oxy]-1H-pyrazol-3-yl}-N-methylethanamine] |  | 5-HT2C receptor agonistic action [1, 4]: −84%
CNCc1cc(OCc2cc(Cl)ccc2F)n(CCC(C)OC)n1 (stereo not drawn) [Compound 405] | −90 | 
CNCc1cc(OCc2ccc(F)cc2C)n(CC2CCCCO2)n1 (stereo not drawn) [Compound 108] | −117 | 
CNC(C)c1cc(OCc2cc(F)ccc2F)n(CCC2CCCC2)n1 (single isomer, unassigned; (-)) [Example 476, (−)-1-{1-(2-cyclopentylethyl)-5-[(2,5-difluorobenzyl)-oxy]-1H-pyrazol-3-yl}-N-methylethanamine] |  | 5-HT2C receptor agonistic action [1, 4]: −72%
CNCc1cc(OC(F)(F)c2ccccc2)n(CC2CCCCC2)n1.Cl [Example 349, 1-{1-(Cyclohexylmethyl)-5-[difluoro(phenyl)methoxy]-1H-pyrazol-3-yl}-N-methylmethanamine Hydrochloride] | −82 | 
CNCc1cc(OCc2ccccc2F)n(Cc2ccc(F)cc2)n1 [Example 218, 1-{1-(4-fluorobenzyl)-5-[(2-fluorobenzyl)oxy]-1H-pyrazol-3-yl}-N-methylmethanamine] | −111 | 
CNC(C)c1cc(OCc2cc(F)ccc2F)n(CCC2CCCC2)n1 (single isomer, unassigned; (+)) [Example 477, (+)-1-{1-(2-cyclopentylethyl)-5-[(2,5-difluorobenzyl)-oxy]-1H-pyrazol-3-yl}-N-methylethanamine] |  | 5-HT2C receptor agonistic action [1, 4]: −94%
CCNCc1cc(OCc2cc(F)ccc2F)n(CC2CCCCC2)n1 [Example 344, N-({1-(Cyclohexylmethyl)-5-[(2,5-difluorobenzyl)oxy]-1H-pyrazol-3-yl}methyl)ethanamine] | −82 | 
CNCc1cc(OCc2cccc(Cl)c2)n(CC2CCc3ccccc3O2)n1.Cl (stereo not drawn) [Example 341, 1-{5-[(3-Chlorobenzyl)oxy]-1-(3,4-dihydro-2H-chromen-2-yl-methyl)-1H-pyrazol-3-yl}-N-methylmethanamine Hydrochloride] | −71 | 
CNCc1cc(OC(C)c2cccc(Cl)c2)n(CC2CCCCC2)n1.Cl (stereo not drawn) [Example 350, 1-{5-[1-(3-Chlorophenyl)ethoxy]-1-(cyclohexylmethyl)-1H-pyrazol-3-yl}-N-methylmethanamine Hydrochloride] | −92 | 
CNCc1cc(OCc2cc(Cl)ccc2F)n(CCC(C)(C)OC)n1 [Example 275, 1-{5-[(5-chloro-2-fluorobenzyl)oxy]-1-(3-methoxy-3-methylbutyl)-1H-pyrazol-3-yl}-N-methylmethanamine] | −88 | 
